We go through 22 compounds from patent US7977349B2, “Substituted quinolones III” (Aicuris GmbH & Co. KG, priority 2006, dated 2011).

Data set [1] can be described thus: Cytostatic effects on NHDF cells in the anti-HCMV cytopathogenicity test. It is filed as cell-based, human. The note with it: human, concentration at which no visible cytostatic effects on NHDF cells are evident vs untreated cell control. The procedure:
(§1) Anti-HCMV (Anti-Human Cytomegalovirus) Cytopathogenicity Tests The test compounds are employed as 50 millimolar (mM) solutions in dimethyl sulfoxide (DMSO). Ganciclovir®, Foscarnet® and Cidofovir® are used as reference compounds. After the addition of 2 μl of the 50, 5, 0.5 and 0.05 mM DMSO stock solutions respectively to 98 μl portions of cell culture medium in row […] for duplicate determinations, 1:2 dilutions are carried out with 50 μl portions of medium up to row 11 of the 96-well plate. The wells in rows 1 and 12 each contain 50 μl of medium. 150 μl of a suspension of 1×10^4 cells (human prepuce fibroblasts [NHDF]) are then pipetted into each of the wells (row 1=cell control) and, in rows 2-12, a mixture of HCMV-infected and uninfected NHDF cells (M.O.I.=0.001-0.002), i.e. 1-2 infected cells per 1000 uninfected cells. Row 12 (without substance) serves as virus control. The final test concentrations are 250-0.0005 μM. The plates are incubated at 37° C./5% CO2 for 6 days, i.e. until all the cells in the virus controls are infected (100% cytopathogenic effect [CPE]). The wells are then fixed and stained by adding a mixture of formalin and Giemsa's dye (30 minutes), washed with double-distilled water and dried in a drying oven at 50° C. The plates are then assessed visually using an overhead microscope (plaque multiplier from Technomara). The following data can be obtained from the test plates: CC50 (NHDF)=substance concentration in μM at which no visible cytostatic effects on the cells are evident compared with the untreated cell control;
On the technique in general: Cytopathic effects are the visible damage that an infection or toxin causes in cultured cells.

In another data set the test system is HCMV. The data set can be described thus: Anti-HCMV (anti-human cytomegalovirus) cytopathogenicity test. It is filed as cell-based. The note with it: Human betaherpesvirus 5, NHDF, 144 h, concentration inhibiting the CPE by 50% vs untreated virus control; HCMV-infected NHDF cells, 6 days, visual assessment. On the procedure: as §1, with “plates: EC50 (HCMV)=substance” for “plates: CC50 (NHDF)=substance”, “μM” for “μM at”, “which inhibits” for “which no visible cytostatic effects on”, “the CPE (cytopathic effect) by 50%” for “the cells are evident”, “untreated virus” for “untreated cell”

For orientation: CC50 means the concentration at which the toxic effect on the cells reaches its halfway point. Usually EC50 stands for the concentration needed to bring the measured effect to its halfway point. Lower therefore signals greater potency. In data set [1], `CCOC(=O)C1CCN(c2c(F)cc3c(=O)c(C(=O)NCc4ccc(Cl)cc4Cl)cn(CC(F)(F)F)c3c2OC)CC1` [Example 1, Ethyl 1-[3-{[(2,4-dichlorobenzyl)amino]carbonyl}-6-fluoro-8-methoxy-4-oxo-1-(2,2,2-trifluoroethyl)-1,4-dihydroquinolin-7-yl]piperidine-4-carboxylate] displayed a CC50 at 6 days of 94 µM. The EC50 with HCMV was 0.009 µM.
On the same counts, the results for `COc1c(N2C[C@@H](C)[C@@H](O)[C@@H](C)C2)c(F)cc2c(=O)c(C(=O)NCc3ccc(OC(F)(F)F)cc3C)cn(CC(F)(F)F)c12` [Example 32, 6-Fluoro-7-[(all-cis)-4-hydroxy-3,5-dimethylpiperidin-1-yl]-8-methoxy-N-[2-methyl-4-(trifluoromethoxy)benzyl]-4-oxo-1-(2,2,2-trifluoroethyl)-1,4-dihydroquinoline-3-carboxamide] are 11 µM and 0.017 µM.
In data set [1], `COc1c(N2CCC(CC(=O)O)CC2)c(F)cc2c(=O)c(C(=O)NCc3ccc(Cl)cc3C)cn(C3CC3)c12` [Example 67] displayed a CC50 at 6 days of 21 µM. In addition, the EC50 in the data set with HCMV is 0.061 µM.
As to `COc1c(N2CCC(C(=O)O)CC2)c(F)cc2c(=O)c(C(=O)NCc3ccc(C(F)(F)F)cc3C)cn(CC(F)(F)F)c12` [Example 54], the midpoint of cytotoxicity in data set [1], the CC50 at 6 days, lay at 21 µM. The compound further registered an EC50 in the data set with HCMV of 0.022 µM.
On the same counts, the results for `COc1c(N2CCCC(CC(=O)O)C2)c(F)cc2c(=O)c(C(=O)NCc3ccc(Cl)cc3Cl)cn(CC(F)(F)F)c12` (centres unmarked) [Example 51, [3-{[(2,4-Dichlorobenzyl)amino]carbonyl}-6-fluoro-8-methoxy-4-oxo-1-(2,2,2-trifluoroethyl)-1,4-dihydroquinolin-7-yl]piperidin-3-ylacetic acid] are 47 µM and 0.026 µM.
The like results for `COc1c(N2CCC(C(=O)O)CC2)c(F)cc2c(=O)c(C(=O)NCc3c(C)cc(Cl)cc3Cl)cn(CC(F)(F)F)c12` [Example 57] were, in that order, 23 µM and 0.026 µM.
On the same counts, the results for `CCOC(=O)C1CCN(c2c(F)cc3c(=O)c(C(=O)NCc4ccc(OC(F)(F)F)cc4Cl)cn(CC(F)(F)F)c3c2OC)CC1` [Example 3, Ethyl 1-[3-({[2-chloro-4-(trifluoromethoxy)benzyl]amino}carbonyl)-6-fluoro-8-methoxy-4-oxo-1-(2,2,2-trifluoroethyl)-1,4-dihydroquinolin-7-yl]piperidine-4-carboxylate] are 24 µM and 0.008 µM.
In data set [1], `COc1c(N2CCC(C(N)=O)CC2)c(F)cc2c(=O)c(C(=O)NCc3ccc(Cl)cc3Cl)cn(CC(F)(F)F)c12` [Example 27] gave a 50% cytotoxic concentration (CC50) at 6 days of 21 µM. In the data set with HCMV, this compound returned an EC50 of 0.013 µM.
The like results for `COc1c(N2CCC[C@H](CC(=O)O)C2)c(F)cc2c(=O)c(C(=O)NCc3ccc(OC(F)(F)F)cc3C)cn(CC(F)(F)F)c12` [Example 73, {(3R)-1-[6-Fluoro-8-methoxy-3-({[2-methyl-4-(trifluoromethoxy)benzyl]amino}carbonyl)-4-oxo-1-(2,2,2-trifluoroethyl)-1,4-dihydroquinolin-7-yl]piperidin-3-yl}acetic acid] were, in that order, 47 µM and 0.003 µM.
`COc1c(N2CCC(C(=O)O)CC2)c(F)cc2c(=O)c(C(=O)NCc3ccc(Cl)cc3C)cn(CC(F)(F)F)c12` [Example 58] came in with a CC50 at 6 days in data set [1] of 47 µM. This compound also came in with an EC50 with HCMV of 0.006 µM.
On the same counts, the results for `CCOc1c(N2CCC(C(=O)O)CC2)c(F)cc2c(=O)c(C(=O)NCc3ccc(OC(F)(F)F)cc3C)cn(CC(F)(F)F)c12` [Example 79, 1-[8-Ethoxy-6-fluoro-3-({[2-methyl-4-(trifluoromethoxy)benzyl]amino}carbonyl)-4-oxo-1-(2,2,2-trifluoroethyl)-1,4-dihydroquinolin-7-yl]piperidine-4-carboxylic acid] are 125 µM and 0.002 µM.
On the same counts, the results for `COc1c(N2CCC(C(=O)O)CC2)c(F)cc2c(=O)c(C(=O)NCc3ccc(OC(F)(F)F)cc3C)cn(C3CCC3)c12` [Example 61] are 21 µM and 0.007 µM.
The like results for `COc1c(N2CCC3(CC2)CNC(=O)C3)c(F)cc2c(=O)c(C(=O)NCc3ccc(OC(F)(F)F)cc3C)cn(C3CC3)c12` [Example 34, 1-Cyclopropyl-6-fluoro-8-methoxy-N-[2-methyl-4-(trifluoromethoxy)benzyl]-4-oxo-7-(3-oxo-2,8-diazaspiro[4.5]dec-8-yl)-1,4-dihydroquinoline-3-carboxamide] were, in that order, 11 µM and 0.04 µM.
The compound `CCOC(=O)C1CCN(c2c(F)cc3c(=O)c(C(=O)NCc4ccc(OC(F)(F)F)cc4C)cn(CC(F)(F)F)c3c2OC)CC1` [Example 2, Ethyl 1-[6-fluoro-8-methoxy-3-({[2-methyl-4-(trifluoromethoxy)benzyl]amino}carbonyl)-4-oxo-1-(2,2,2-trifluoroethyl)-1,4-dihydroquinolin-7-yl]piperidine-4-carboxylate] showed a CC50 at 6 days in data set [1] of 47 µM. Besides, it took 0.005 µM to reach a half-maximal effect in the data set on HCMV (EC50).
The like results for `CCOC(=O)C1CCN(c2c(F)cc3c(=O)c(C(=O)NCc4ccc(Cl)cc4Cl)cn([C@H]4C[C@H]4F)c3c2OC)CC1` [Example 13] were, in that order, 23 µM and 0.019 µM.
On the same counts, the results for `COc1c(N2CCC(CC(=O)O)CC2)c(F)cc2c(=O)c(C(=O)NCc3ccc(OC(F)(F)F)cc3C)cn(CC(F)(F)F)c12` [Example 53, [6-Fluoro-8-methoxy-3-({[2-methyl-4-(trifluoromethoxy)benzyl]amino}carbonyl)-4-oxo-1-(2,2,2-trifluoroethyl)-1,4-dihydroquinolin-7-yl]piperidin-4-ylacetic acid] are 94 µM and 0.005 µM.
The like results for `COc1c(N2CCC3(CC2)CNC(=O)C3)c(F)cc2c(=O)c(C(=O)NCc3ccc(OC(F)(F)F)cc3C)cn(CC(F)(F)F)c12` [Example 33, 6-Fluoro-8-methoxy-N-[2-methyl-4-(trifluoromethoxy)benzyl]-4-oxo-7-(3-oxo-2,8-diazaspiro[4.5]dec-8-yl)-1-(2,2,2-trifluoroethyl)-1,4-dihydroquinoline-3-carboxamide] were, in that order, 19 µM and 0.017 µM.
`COc1c(N2CCC(C(=O)O)CC2)c(F)cc2c(=O)c(C(=O)NCc3ccc(OC(F)(F)F)cc3C)cn(C(C)CF)c12` (centres unmarked) [Example 65] had a CC50 at 6 days in data set [1] of 106 µM. Besides, it took 0.079 µM to reach a half-maximal effect in the data set with HCMV (EC50).
On the same counts, the results for `COc1c(N2CCC(C(=O)O)CC2)c(F)cc2c(=O)c(C(=O)NCc3ccc(OC(F)(F)F)cc3C)cn(CCF)c12` [Example 49, 1-[6-Fluoro-1-(2-fluoroethyl)-8-methoxy-3-({[2-methyl-4-(trifluoromethoxy)benzyl]amino}carbonyl)-4-oxo-1,4-dihydroquinolin-7-yl]piperidine-4-carboxylic acid] are 94 µM and 0.006 µM.
On the same counts, the results for `Cc1cc(OC(F)(F)F)ccc1CNC(=O)c1cn(CC(F)(F)F)c2c(O)c(N3CCC(C(=O)O)CC3)c(F)cc2c1=O` [Example 77, 1-[6-Fluoro-8-hydroxy-3-({[2-methyl-4-(trifluoromethoxy)benzyl]amino}carbonyl)-4-oxo-1-(2,2,2-trifluoroethyl)-1,4-dihydroquinolin-7-yl]piperidine-4-carboxylic acid] are 250 µM and 0.006 µM.
On the same counts, the results for `COc1c(N2CCC(C(N)=O)CC2)c(F)cc2c(=O)c(C(=O)NCc3ccc(C(F)(F)F)cc3C)cn(CC(F)(F)F)c12` [Example 30] are 11 µM and 0.034 µM.
Compound `CCOC(=O)C1CCN(c2c(F)cc3c(=O)c(C(=O)NCc4ccc(Cl)cc4C)cn(CC(F)(F)F)c3c2OC)CC1` [Example 7] came in with a CC50 at 6 days in data set [1] of 94 µM. This compound also displayed an EC50 in the data set on HCMV of 0.018 µM.
